The results in this text go back to patent US7750017B2, “Heterocycles” (Bayer Schering Pharma Aktiengesellschaft, priority 2004, dated 2010).

Experiment [1] relates to BT474 [human breast carcinoma, overexpressing HER2 (ErbB2)]. As to the kind of experiment: In vitro tumor cell proliferation assay (Cell Titer-Glo luminescent cell viability), BT474 cells. The note with it: BT-474, 72 h, 72 hours of drug exposure, Cell Titer-Glo readout, read-out: IC50, anti-proliferative activity in BT474 cells. It counts as cell-based. The text has this:
(§1) The utility of the compounds of the present invention can be illustrated, for example, by their activity in vitro in the in vitro tumor cell proliferation assay described below. The link between activity in tumor cell proliferation assays in vitro and anti-tumor activity in the clinical setting has been very well established in the art.
(§2) The following assay is one of the methods by which compound activity relating to treatment of the disorders identified herein can be determined.
(§3) The tumor cell proliferation assay used to test the compounds of the present invention involves a readout called Cell Titer-Glow® Luminescent Cell Viability Assay developed by Promega® (Cunningham, B A “A Growing Issue: Cell Proliferation Assays, Modern kits ease quantification of cell growth” The Scientist 2001, 15(13), 26, and Crouch, S P et al., “The use of ATP bioluminescence as a measure of cell proliferation and cytotoxicity” Journal of Immunological Methods 1993, 160, 81-88), that measures inhibition of cell proliferation. Generation of a luminescent signal corresponds to the amount of ATP present, which is directly proportional to the number of metabolically active (proliferating) cells.
(§4) A431 cells [human epidermoid carcinoma, ATCC # […], overexpressing HER1 (EGFR, ErbB1)] and BT474 [human breast carcinoma, ATCC # CRL-1555, overexpressing HER2 (ErbB2)] were plated at a density of 2.5×10^3 cells/well in 96 well black-clear bottom tissue culture plates in RPMI media with 10% Fetal Bovine Serum and incubated at 37° C. Twenty-four hours later, test compounds are added at a final concentration range from as high 100 μm to as low 64 pM depend on the activities of the tested compounds in serial dilutions at a final DMSO concentration of 0.1%. Cells were incubated for 72 hours at 37° C. in complete growth media after addition of the test compound. After 72 hours of drug exposure, the plates were equilibrated to room temperature for approximately 30 min. Then, using a Promega Cell Titer Glo Luminescent® assay kit, lysis buffer containing 100 microliters of the enzyme luciferase and its substrate, luciferin mixture, was added to each well. The plates were mixed for 2 min on orbital shaker to ensure cell lysis and incubated for 10 min at room temperature to stabilize luminescence signal. The samples were read on VICTOR 2 using Luminescence protocol, and analyzed with Analyze5 software to generate IC50 values.

Experiment [2] deals with A431 cells [human epidermoid carcinoma, overexpressing HER1 (EGFR, ErbB1)]. Description: In vitro tumor cell proliferation assay (Cell Titer-Glo luminescent cell viability), A431 cells. It counts as cell-based. The note with it: A-431, 72 h, 72 hours of drug exposure, Cell Titer-Glo readout, read-out: IC50, anti-proliferative activity in A431 cells.
From the text: as §1, §2, §3, §4
A general note: ATP-based viability assays read luminescence as a measure of living cells.

SMILES strings stand for the structures. Counter-ions that a name gives are not always drawn.

For the compound `CS(=O)(=O)CCNC(=O)C(O)C(O)c1ccc2c(c1)sc1ncnc(Nc3ccc(OCc4cccc(F)c4)c(Cl)c3)c12` (stereo not shown) [Example 60, 3-[4-({3-chloro-4-[(3-fluorobenzyl)oxy]phenyl}amino) [1]benzothieno[2,3-d]pyrimidin-7-yl]-2,3-dihydroxy-N-[2-(methylsulfonyl)ethyl]propanamide], the concentration for half-maximal inhibition (IC50) (as a rule, the concentration needed to halve the response being measured) in experiment [1] is no more than 0.5 µM; in experiment [2], no more than 50 µM.
Taken in the same sequence, the figures for `OC[C@H](O)c1ccc2c(c1)sc1ncnc(Nc3ccc(OCc4cccc(F)c4)c(Cl)c3)c12` [Example 27, (1R)-1-[4-({3-chloro-4-[(3-fluorobenzyl)oxy]phenyl}amino) [1]benzothieno[2,3-d]pyrimidin-7-yl]ethane-1,2-diol] were no more than 0.5 µM and no more than 5 µM.
Regarding `Fc1cccc(COc2ccc(Nc3ncnc4sc5cc(OCCn6cccc6)ccc5c34)cc2Cl)c1` [Example 40, N-{3-chloro-4-[(3-fluorobenzyl)oxy]phenyl}-7-[2-(1H-pyrrol-1-yl)ethoxy][1] benzothieno[2,3-d]pyrimidin-4-amine], the IC50 in experiment [1] is no more than 5 µM; in experiment [2], no more than 50 µM.
The matching figures for `CCOC(=O)C(Oc1ccc2c(c1)sc1ncnc(Nc3ccc(OCc4cccc(F)c4)c(Cl)c3)c12)C(=O)OCC` [Example 42, diethyl {[4-({3-chloro-4-[(3-fluorobenzyl)oxy]phenyl}amino)[1]benzothieno[2,3-d]pyrimidin-7-yl]oxy}malonate trifluoroacetate]: no more than 5 µM and no more than 50 µM.
Taken in the same sequence, the figures for `Fc1cccc(COc2ccc(Nc3ncnc4sc5cc(OCCCN6CCOCC6)ccc5c34)cc2Cl)c1` [Example 39, N-{3-chloro-4-[(3-fluorobenzyl)oxy]phenyl}-7-(3-morpholin-4-ylpropoxy)[1] benzothieno[2,3-d]pyrimidin-4-amine] were no more than 0.5 µM and no more than 5 µM.
The matching figures for `Fc1cccc(COc2ccc(Nc3ncnc4sc5cc(CCBr)ccc5c34)cc2Cl)c1` [Example 3, 7-(2-bromoethyl)-N-{3-chloro-4-[(3-fluorobenzyl)oxy]phenyl}[1]benzothieno[2,3-d]pyrimidin-4-amine]: no more than 0.5 µM and no more than 5 µM.
On to `O=C(O)CCc1ccc2c(c1)sc1ncnc(Nc3ccc(OCc4cccc(F)c4)c(Cl)c3)c12` [Example 65, 3-[4-({3-chloro-4-[(3-fluorobenzyl)oxy]phenyl}amino)[1]benzothieno[2,3-d]pyrimidin-7-yl]propanoic acid], for which the half-inhibitory concentration (IC50) is no more than 5 µM in experiment [1] and no more than 50 µM in experiment [2].
The matching figures for `Fc1cccc(COc2ccc(Nc3ncnc4sc5cc(CCN6CCSCC6)ccc5c34)cc2Cl)c1` [Example 15, N-{3-chloro-4-[(3-fluorobenzyl)oxy]phenyl}-7-(2-thiomorpholin-4-ylethyl)[1] benzothieno[2,3-d]pyrimidin-4-amine]: no more than 0.5 µM and no more than 5 µM.
Taken in the same sequence, the figures for `OCC(O)c1ccc2c(c1)sc1ncnc(Nc3ccc(OCc4cccc(F)c4)c(Cl)c3)c12` (racemic) [Example 25, 1-[4-({3-chloro-4-[(3-fluorobenzyl)oxy]phenyl}amino) [1]benzothieno[2,3-d]pyrimidin-7-yl]ethane-1,2-diol] were no more than 0.5 µM and no more than 5 µM.
Taken in the same sequence, the figures for `O=C(O)Cc1ccc2c(c1)sc1ncnc(Nc3ccc4c(cnn4Cc4cccc(F)c4)c3)c12` [Example 121, (4-{[1-(3-fluorobenzyl)-1H-indazol-5-yl]amino}[1]benzothieno[2,3-d]pyrimidin-7-yl)acetic acid] were no more than 5 µM and no more than 50 µM.
For the compound `O=C(Cc1ccc2c(c1)sc1ncnc(Nc3ccc(OCc4ccccn4)c(Cl)c3)c12)N(CCO)CCO` [Example 105, 2(4-{[3-chloro-4-(pyridin-2-ylmethoxy)phenyl]amino}[1]benzothieno[2,3-d]pyrimidin-7-yl)-N,N-bis-(2-hydroxyethyl) acetamide], the figures for the half-inhibitory concentration (IC50) in experiment [1] and in experiment [2] were no more than 5 µM and no more than 50 µM, respectively.
The matching figures for `CS(=O)(=O)CCNC(=O)Cc1ccc2c(c1)sc1ncnc(Nc3ccc4c(cnn4Cc4cccc(F)c4)c3)c12` [Example 122, 2-(4-{[1-(3-fluorobenzyl)-1H-indazol-5-yl]amino}[1]benzothieno[2,3-d]pyrimidin-7-yl)-N-[2-(methylsulfonyl)ethyl] acetamide]: no more than 0.5 µM and no more than 5 µM.
The matching figures for `C=Cc1ccc2c(c1)sc1ncnc(Nc3ccc4c(cnn4Cc4cccc(F)c4)c3)c12` [Example 114, N-[1-(3-fluorobenzyl)-1H-indazol-5-yl]-7-vinyl[1]benzothieno[2,3-d] pyrimidin-4-amine]: no more than 0.5 µM and no more than 50 µM.
As for `COC[C@H]1CCCN1CCc1ccc2c(c1)sc1ncnc(Nc3ccc(OCc4cccc(F)c4)c(Cl)c3)c12` [Example 5, N-{3-chloro-4-[(3-fluorobenzyl)oxy]phenyl}-7-{2-[2-(methoxymethyl)pyrrolidin-1-yl]ethyl}[1]benzothieno[2,3-d] pyrimidin-4-amine], the 50% inhibitory concentration (IC50) is no more than 0.5 µM in experiment [1] and no more than 5 µM in experiment [2].
The matching figures for `CN(C)CCNC(=O)Cc1ccc2c(c1)sc1ncnc(Nc3ccc(OCc4ccccn4)c(Cl)c3)c12` [Example 100, 2-(4-{[3-chloro-4-(pyridin-2-ylmethoxy)phenyl]amino}[1]benzothieno[2,3-d]pyrimidin-7-yl)-N-[(2-dimethylamino)ethyl]acetamide]: no more than 0.5 µM and no more than 50 µM.
Taken in the same sequence, the figures for `CS(=O)(=O)CCNCCc1ccc2c(c1)sc1ncnc(Nc3ccc(OCc4cccc(F)c4)c(Cl)c3)c12` [Example 4, N-{3-chloro-4-[(3-fluorobenzyl)oxy]phenyl}-7-(2-{[2-(methylsulfonyl)ethyl]amino}ethyl)[1]benzothieno[2,3-d] pyrimidin-4-amine] were no more than 0.5 µM and no more than 50 µM.
Taken in the same sequence, the figures for `O=C(Cc1ccc2c(c1)sc1ncnc(Nc3ccc(OCc4ccccn4)c(Cl)c3)c12)N1CCCC1` [Example 99, N-[3-chloro-4-(pyridin-2-ylmethoxy)phenyl]-7-(2-oxo-2-pyrrolidin-1-ylethyl)[1]benzothieno [2,3-d]pyrimidin-4-amine] were no more than 5 µM and no more than 50 µM.
Take `Clc1cc(Nc2ncnc3sc4cc(CCBr)ccc4c23)ccc1OCc1ccccn1` [Example 83, 7-(2-bromoethyl)-N-[3-chloro-4-(pyridin-2-ylmethoxy)phenyl][1] benzothieno[2,3-d]pyrimidin-4-amine]: the half-inhibitory concentration (IC50) in experiment [1] is no more than 0.5 µM; in experiment [2] it was no more than 5 µM.
Taken in the same sequence, the figures for `O=C(Cc1ccc2c(c1)sc1ncnc(Nc3ccc(OCc4cccc(F)c4)c(Cl)c3)c12)N1CCNCC1` [Example 31, N-{3-chloro-4-[(3-fluorobenzyl)oxy]phenyl}-7-(2-oxo-2-piperazin-1-ylethyl)[1] benzothieno[2,3-d]pyrimidin-4-amine hydrochloride] were no more than 0.5 µM and no more than 5 µM.
On to `CN1CCN(C(=O)Cc2ccc3c(c2)sc2ncnc(Nc4ccc(OCc5ccccn5)c(Cl)c4)c23)CC1` [Example 96, N-[3-chloro-4-(pyridin-2-ylmethoxy)phenyl]-7-[2-(4-methylpiperazin-1-yl)-2-oxoethyl][1]benzothieno[2,3-d] pyrimidin-4-amine], for which the IC50 in experiment [1] was no more than 0.5 µM; in experiment [2] it was no more than 50 µM.
